Here are results for 11 sequences from patent publication US7785828B1 (priority 2003, dated 2010).

Some test systems named below: Mycosphaerella fijiensis; Fusarium graminearum; Septoria tritici.
Common to all, as to format: cell-based

Take “DGVKLCEKASQTWSGHCGNTKHCDNQCKNWEGAKHGACHKRNGKWKCFCYFNC [L7-434] (Defensin like)”: the “Antifungal activity, Mycosphaerella fijiensis (improvement compared to DmAMP1)” value in the experiment with Mycosphaerella fijiensis is listed as “+ (key: + indicating 1- to 5-fold improvement compared to DmAMP1; ++ indicating >5- to 10-fold improvement; +++ indicating >10-fold improvement)”. In addition, the “Antifungal activity, Fusarium graminearum (improvement compared to DmAMP1)” value with Fusarium graminearum is reported as “+++ (key: + indicating 1- to 5-fold improvement compared to DmAMP1; ++ indicating >5- to 10-fold improvement; +++ indicating >10-fold improvement)”. Also, in the experiment on Septoria tritici, the “Antifungal activity, Septoria tritici (improvement compared to DmAMP1)” value is on record as “+ (key: + indicating 1- to 5-fold improvement compared to DmAMP1; ++ indicating >5- to 10-fold improvement; +++ indicating >10-fold improvement)”.

As for “NLCEKASKTWTGNCGNTKHCDTQCKNWEGAKHGACHKRNGKWKCFCYFNC (Defensin like) [L9-45]”, in the experiment on Mycosphaerella fijiensis, the “Antifungal activity, Mycosphaerella fijiensis (improvement compared to DmAMP1)” value was “+ (key: + indicating 1- to 5-fold improvement compared to DmAMP1; ++ indicating >5- to 10-fold improvement; +++ indicating >10-fold improvement)”. Also, the “Antifungal activity, Fusarium graminearum (improvement compared to DmAMP1)” value in the experiment with Fusarium graminearum was “+ (key: + indicating 1- to 5-fold improvement compared to DmAMP1; ++ indicating >5- to 10-fold improvement; +++ indicating >10-fold improvement)”. Also, in the experiment on Septoria tritici, the “Antifungal activity, Septoria tritici (improvement compared to DmAMP1)” value was “+ (key: + indicating 1- to 5-fold improvement compared to DmAMP1; ++ indicating >5- to 10-fold improvement; +++ indicating >10-fold improvement)”.

Regarding “NLCERASKTWSGNCGNTKHCDTQCKNWEGAKHGACHKRSGKWMCFCYFNC (Defensin like) [L3-144]”, the “Antifungal activity, Mycosphaerella fijiensis (improvement compared to DmAMP1)” value in the experiment with Mycosphaerella fijiensis is reported as “+ (key: + indicating 1- to 5-fold improvement compared to DmAMP1; ++ indicating >5- to 10-fold improvement; +++ indicating >10-fold improvement)”. The “Antifungal activity, Fusarium graminearum (improvement compared to DmAMP1)” value in the experiment with Fusarium graminearum is on record as “++ (key: + indicating 1- to 5-fold improvement compared to DmAMP1; ++ indicating >5- to 10-fold improvement; +++ indicating >10-fold improvement)”. Also, in the experiment on Septoria tritici, the “Antifungal activity, Septoria tritici (improvement compared to DmAMP1)” value was “+ (key: + indicating 1- to 5-fold improvement compared to DmAMP1; ++ indicating >5- to 10-fold improvement; +++ indicating >10-fold improvement)”.

As for “NLCERASKTWSGNCGNTKHCDTQCRSWEGAAHGACHKRNGKWKCFCYFNC (Defensin like) [L9-14]”, the “Antifungal activity, Mycosphaerella fijiensis (improvement compared to DmAMP1)” value in the experiment on Mycosphaerella fijiensis is given as “+ (key: + indicating 1- to 5-fold improvement compared to DmAMP1; ++ indicating >5- to 10-fold improvement; +++ indicating >10-fold improvement)”. The “Antifungal activity, Fusarium graminearum (improvement compared to DmAMP1)” value with Fusarium graminearum is listed as “++ (key: + indicating 1- to 5-fold improvement compared to DmAMP1; ++ indicating >5- to 10-fold improvement; +++ indicating >10-fold improvement)”. For the same sequence, the “Antifungal activity, Septoria tritici (improvement compared to DmAMP1)” value with Septoria tritici is “+ (key: + indicating 1- to 5-fold improvement compared to DmAMP1; ++ indicating >5- to 10-fold improvement; +++ indicating >10-fold improvement)”.

Take “DGVKLCEKASQTWSGHCGNTKHCDNQCKNWEGAKHGACHKRNGKWKCFCYFNC [L7-350] (Defensin like)”: the “Antifungal activity, Mycosphaerella fijiensis (improvement compared to DmAMP1)” value in the experiment on Mycosphaerella fijiensis was “+ (key: + indicating 1- to 5-fold improvement compared to DmAMP1; ++ indicating >5- to 10-fold improvement; +++ indicating >10-fold improvement)”. For the same sequence, the “Antifungal activity, Fusarium graminearum (improvement compared to DmAMP1)” value in the experiment with Fusarium graminearum is listed as “+ (key: + indicating 1- to 5-fold improvement compared to DmAMP1; ++ indicating >5- to 10-fold improvement; +++ indicating >10-fold improvement)”. In addition, in the experiment with Septoria tritici, the “Antifungal activity, Septoria tritici (improvement compared to DmAMP1)” value is given as “+ (key: + indicating 1- to 5-fold improvement compared to DmAMP1; ++ indicating >5- to 10-fold improvement; +++ indicating >10-fold improvement)”.

In the case of “NLCEKASKTWTGNCGNTKHCDTQCKSWEGAKHGACHVRSGKHKCFCYFNC (Defensin like) [L9-29]”, the “Antifungal activity, Mycosphaerella fijiensis (improvement compared to DmAMP1)” value in the experiment with Mycosphaerella fijiensis is on record as “++ (key: + indicating 1- to 5-fold improvement compared to DmAMP1; ++ indicating >5- to 10-fold improvement; +++ indicating >10-fold improvement)”. Further, the “Antifungal activity, Fusarium graminearum (improvement compared to DmAMP1)” value in the experiment on Fusarium graminearum is “+++ (key: + indicating 1- to 5-fold improvement compared to DmAMP1; ++ indicating >5- to 10-fold improvement; +++ indicating >10-fold improvement)”. The “Antifungal activity, Septoria tritici (improvement compared to DmAMP1)” value in the experiment on Septoria tritici is given as “++ (key: + indicating 1- to 5-fold improvement compared to DmAMP1; ++ indicating >5- to 10-fold improvement; +++ indicating >10-fold improvement)”.

As for “NLCERASKTWSGNCGNTKHCDTQCRSWEGAAHGACHKRSGKWKCFCYFNC (Defensin like) [L9-41]”, the “Antifungal activity, Mycosphaerella fijiensis (improvement compared to DmAMP1)” value with Mycosphaerella fijiensis was “+ (key: + indicating 1- to 5-fold improvement compared to DmAMP1; ++ indicating >5- to 10-fold improvement; +++ indicating >10-fold improvement)”. Further, the “Antifungal activity, Fusarium graminearum (improvement compared to DmAMP1)” value in the experiment with Fusarium graminearum was “++ (key: + indicating 1- to 5-fold improvement compared to DmAMP1; ++ indicating >5- to 10-fold improvement; +++ indicating >10-fold improvement)”. The “Antifungal activity, Septoria tritici (improvement compared to DmAMP1)” value in the experiment on Septoria tritici was “+ (key: + indicating 1- to 5-fold improvement compared to DmAMP1; ++ indicating >5- to 10-fold improvement; +++ indicating >10-fold improvement)”.

“NLCEKASKTWTGNCGNTKHCDNQCRNWEGAKHGACHVRSGKHKCFCYFNC (Defensin like) [L9-22]”: in the experiment on Mycosphaerella fijiensis, the “Antifungal activity, Mycosphaerella fijiensis (improvement compared to DmAMP1)” value is “+ (key: + indicating 1- to 5-fold improvement compared to DmAMP1; ++ indicating >5- to 10-fold improvement; +++ indicating >10-fold improvement)”. For the same sequence, the “Antifungal activity, Fusarium graminearum (improvement compared to DmAMP1)” value in the experiment with Fusarium graminearum is “+++ (key: + indicating 1- to 5-fold improvement compared to DmAMP1; ++ indicating >5- to 10-fold improvement; +++ indicating >10-fold improvement)”. In addition, the “Antifungal activity, Septoria tritici (improvement compared to DmAMP1)” value in the experiment on Septoria tritici is listed as “+++ (key: + indicating 1- to 5-fold improvement compared to DmAMP1; ++ indicating >5- to 10-fold improvement; +++ indicating >10-fold improvement)”.

In the case of “NLCERASKTWSGNCGNTKHCDNQCKSWEGAAHGACHVRNGKHKCFCYFNC (Defensin like) [L6-61]”, the “Antifungal activity, Mycosphaerella fijiensis (improvement compared to DmAMP1)” value in the experiment on Mycosphaerella fijiensis is “+ (key: + indicating 1- to 5-fold improvement compared to DmAMP1; ++ indicating >5- to 10-fold improvement; +++ indicating >10-fold improvement)”. For the same sequence, in the experiment with Fusarium graminearum, the “Antifungal activity, Fusarium graminearum (improvement compared to DmAMP1)” value is recorded as “+++ (key: + indicating 1- to 5-fold improvement compared to DmAMP1; ++ indicating >5- to 10-fold improvement; +++ indicating >10-fold improvement)”. Further, the “Antifungal activity, Septoria tritici (improvement compared to DmAMP1)” value in the experiment on Septoria tritici was “++ (key: + indicating 1- to 5-fold improvement compared to DmAMP1; ++ indicating >5- to 10-fold improvement; +++ indicating >10-fold improvement)”.

With “NLCERASKTWSGNCGNTKHCDTQCRNWEGAKHGACHVRSGKHKCFCYFNC (Defensin like) [L9-27]”, the “Antifungal activity, Mycosphaerella fijiensis (improvement compared to DmAMP1)” value in the experiment on Mycosphaerella fijiensis is “++ (key: + indicating 1- to 5-fold improvement compared to DmAMP1; ++ indicating >5- to 10-fold improvement; +++ indicating >10-fold improvement)”. Further, in the experiment on Fusarium graminearum, the “Antifungal activity, Fusarium graminearum (improvement compared to DmAMP1)” value is “++ (key: + indicating 1- to 5-fold improvement compared to DmAMP1; ++ indicating >5- to 10-fold improvement; +++ indicating >10-fold improvement)”. Further, the “Antifungal activity, Septoria tritici (improvement compared to DmAMP1)” value in the experiment with Septoria tritici is “++ (key: + indicating 1- to 5-fold improvement compared to DmAMP1; ++ indicating >5- to 10-fold improvement; +++ indicating >10-fold improvement)”.

As for “DGVKLCEKASQTWSGHCGNTKHCDNQCKNWEGAKHGACHKRSGKWKCFCYFNC (Defensin like) [L7-422]”, the “Antifungal activity, Mycosphaerella fijiensis (improvement compared to DmAMP1)” value with Mycosphaerella fijiensis is “+ (key: + indicating 1- to 5-fold improvement compared to DmAMP1; ++ indicating >5- to 10-fold improvement; +++ indicating >10-fold improvement)”. Further, the “Antifungal activity, Fusarium graminearum (improvement compared to DmAMP1)” value in the experiment with Fusarium graminearum is “+ (key: + indicating 1- to 5-fold improvement compared to DmAMP1; ++ indicating >5- to 10-fold improvement; +++ indicating >10-fold improvement)”. In addition, in the experiment with Septoria tritici, the “Antifungal activity, Septoria tritici (improvement compared to DmAMP1)” value was “+ (key: + indicating 1- to 5-fold improvement compared to DmAMP1; ++ indicating >5- to 10-fold improvement; +++ indicating >10-fold improvement)”.
